Data from a melting point compilation (Tetko et al.; mined from patent text by program, amines drawn as free bases though some values may be those of a salt).

Compared with `CCc1nc2c(N)nc3ccccc3c2n1CCCCNC(=O)C1CCCC1`, `CCCCc1nc2c(N)nc(C)c(C)c2n1CCCCNC(=O)Nc1ccccc1` is higher in melting point: 179 to 180 °C for the first, 196 to 197 °C for the second.

First: COc1ccccc1N1CCN(CCNCCCN2CC=C(c3c[nH]c4cc(Cl)ccc34)CC2)CC1
Second: Sc1nc2ccccc2n1CCCN1CCN(C(c2ccccc2)c2ccccc2)CC1
The melting point of the first is lower: 71 to 73 °C for the first, 182 °C for the second.

First: C[C@@H](S[C@H]1CO[C@H](c2ccc(C(=O)Nc3nc4ccccc4s3)cc2)OC1)[C@](O)(Cn1cncn1)c1ccc(F)cc1F
Second: O=C(Nc1ccc2cc(CN3CCCC3)ccc2c1)c1ccc(-c2ccc(F)cc2)nc1
The melting point of the first is lower: 107 °C for the first, 238 to 240 °C for the second.

First: CC(C)c1csc(CO)n1
Second: CC(C)c1n[nH]c(Cl)c1C=NC(C#N)=C(N)C#N
The melting point of the first is lower: 80 to 82 °C for the first, 145 to 150 °C for the second.

First: CCOC(=O)c1ccc(-c2cnc(-c3ccc(C(F)(F)F)cc3)o2)cc1
Second: O=C(O)c1ccc(-c2cc(-c3ccc(Cl)cc3)no2)cc1
The melting point of the first is lower: 142 to 143 °C for the first, greater than 300 °C for the second.

First: Cn1c(C(F)(F)F)cc(C#N)c1-c1ccc(Cl)c(Cl)c1
Second: FC(F)(F)c1[nH]c(-c2ccc(Cl)cc2)c(C(F)(F)F)c1Br
The melting point of the first is higher: 130 °C for the first, 71 to 75 °C for the second.

Compared with `CCCCc1oc2ccccc2c1C(=O)Nc1ccc(-c2ccc(O)cc2)cc1`, `COc1ccc(Nc2ccc(C(=O)O)cc2)c2ccccc12` is lower in melting point: 181 to 183 °C for the first, 153 to 154 °C for the second.

First: COC(=O)C(C)Oc1ccc(COc2ccc(-n3nc(C)n(C(F)F)c3=O)c(F)c2)cc1 (stereo not drawn)
Second: COc1ccc(C(=O)C2=C(O)C(=O)N(c3nnc(C)s3)C2c2ccc(OC(F)(F)F)cc2)cc1 (stereo not drawn)
The melting point of the first is lower: 83 to 85 °C for the first, 245 to 247 °C for the second.

First: COC(=O)CCCc1cc2nc(C(F)(F)F)ccc2n1S(=O)(=O)c1ccccc1Cl
Second: CCOc1ccc2c(c1)n(C1CCCCC1)c(=O)n2S(=O)(=O)c1ccc(NC(=O)Oc2ccccc2)cc1OC
The melting point of the first is lower: 88 °C for the first, 197 °C for the second.

Compared with `Cn1c([N+](=O)[O-])cnc1COc1ccc(C#N)cc1`, `O=[N+]([O-])c1ccccc1COc1cccc2cccnc12` is higher in melting point: 130 °C for the first, 152 °C for the second.

First: COc1ccc2c(c1)c(C1CCN(Cc3cccc(C(=O)O)c3)CC1)cn2CCc1ccsc1
Second: Cc1nc2n(c(=O)c1CCN1CCC(c3noc4ccccc34)CC1)CCCC2
The melting point of the first is higher: 217 to 218 °C for the first, 183 °C for the second.

First: O=c1c2ccc(Cl)cc2nc2n1CS(=O)(=O)N2
Second: O=C1C=C(c2ccc(Cl)cc2)C(=O)O1
The melting point of the first is higher: greater than 300 °C for the first, 144 to 145 °C for the second.

First: CC(C)(C)OC(=O)N(C(=O)OC(C)(C)C)C(=O)c1cc2cc(Br)ccc2o1
Second: COC(=O)c1ccc2cc(NC(=O)OC(C)(C)C)ccc2c1
The melting point of the first is lower: 138 to 139 °C for the first, 178 to 180 °C for the second.

Going from `Cc1ccc(S(=O)(=O)NC(=O)C2C(=O)CC(C)CC2=O)cc1` (stereo not drawn) to `Cc1ccc(-c2[nH]nc(CO)c2-c2ccc(S(N)(=O)=O)cc2)cc1`, the melting point rises from 122 °C to 130 °C.

First: O=C1CCCCN1CCCC(=O)N1CCC(C2c3ncc(Br)cc3CCc3cc(Cl)cc(Br)c32)CC1 (single isomer, unassigned; (+))
Second: Cn1c(C(F)(F)F)cc(=O)n(-c2cc(OC(=O)NCC3CCCCC3)c(Cl)cc2F)c1=O
The melting point of the first is lower: 101 to 102 °C for the first, 132 to 135 °C for the second.

First: COC1=C(OC)C(=O)C(N=[N+]=[N-])=C(C)C1=O
Second: COc1cc(C=O)cc(OC)c1N
The melting point of the first is lower: 48 to 50 °C for the first, 94 to 96 °C for the second.

Compared with `CCN1CCN=C1c1ccccc1C(=O)c1ccc(Cl)cc1`, `COc1ccc(C2(O)C(=O)N(Cc3ccc(Cl)cc3)c3ccccc32)cn1` (stereo not drawn) is higher in melting point: 132 to 134 °C for the first, 182 to 184 °C for the second.

First: N#Cc1cccc(NCc2nc3ccc(F)cc3c(=O)n2-c2ccccc2Cl)c1
Second: CC1C(=O)N(c2ccccc2)C(=S)N1Cc1ccc(Oc2ccccc2)cc1 (stereo not drawn)
The melting point of the first is higher: 225 to 228 °C for the first, 122 °C for the second.

Compared with `O=C(O)c1cc(NC(=O)C(CS)Cc2ccccc2)c[nH]1` (stereo not drawn), `O=C(O)C(Cc1ccccc1)NCc1ccccc1` (stereo not drawn) is higher in melting point: 169 to 172 °C for the first, 219 to 220 °C for the second.

Compared with `Fc1ccc2cc(C3CCNCC3)sc2c1`, `N#Cc1cnc2cc(F)ccc2c1O` is higher in melting point: 115 to 120 °C for the first, greater than 250 °C for the second.

Compared with `CC(=NO)C(C)(C)COc1ccc(F)cc1`, `O=C(O)C(Cc1cccc(F)c1)c1ccc(F)cc1` (stereo not drawn) is higher in melting point: 65 to 66 °C for the first, 92 to 94 °C for the second.

First: OC1CC(NCc2ccccc2)c2ccccc21 (stereo not drawn)
Second: O=C(OCc1ccccc1)C1=CCC2C(C(O)c3ccccc3)C(=O)N12 (stereo not drawn)
The melting point of the first is higher: 125 to 127 °C for the first, 124 °C for the second.

First: CCC(=O)c1ccc(C(=O)CC)cc1
Second: CCCc1c(C(=O)C(C)C)c2ccc(C(N)=O)cc2n1Cc1ccccc1C
The melting point of the first is lower: 98 to 101 °C for the first, 190 to 191 °C for the second.

First: COC(=O)c1ccc(C(=O)C=CN(C)C)cc1Cl
Second: COC(C)=CC(=O)Nc1cccc(OC(C)=O)c1
The melting point of the first is lower: 92 to 96 °C for the first, 111 °C for the second.

Compared with `C#CCOc1ccc(-c2nc3cnncc3[nH]2)c(OC)c1`, `CCCCc1c(C=O)ccc2cc(OC)ccc12` is lower in melting point: 224 °C for the first, 56 to 57 °C for the second.

Compared with `CO[C@@H]1C=C2C=C3C(=C(C)C(=O)N3C)C[C@]2(C)[C@@H](C)[C@H]1O`, `CC(=O)O[C@@H]1C2=C(OC(C(C)=O)=C[C@@H]2N2CCCCC2=O)SC1(C)C` (relative stereo) is higher in melting point: 165 to 170 °C for the first, 180 °C for the second.

First: CCOC(=O)c1nc(C(C)(C)C)nc2ccccc12
Second: Cc1c[nH]c(-c2ccnc(NC(=O)c3ccccc3)c2)n1
The melting point of the first is lower: 46 to 47 °C for the first, 133 to 135 °C for the second.

First: CC1=CC(=O)C(C(=O)C=Cc2cccs2)C(=O)O1 (stereo not drawn)
Second: C=C1CC(C)(COc2ccc3ccc(=O)oc3c2)OC1=O (stereo not drawn)
The melting point of the first is higher: 162 to 164 °C for the first, 123 to 124 °C for the second.

First: O=C(O)Cc1c(C(=O)c2ccccc2)[nH]c2cc(Cl)c(Cl)cc12
Second: O=C(O)CCc1ccnc(-c2nc(=O)c3ccc(Br)cc3s2)c1
The melting point of the first is lower: 206 to 210 °C for the first, 258 to 259 °C for the second.

Compared with `N#Cc1ccc(N2CCOCC2)c(NC(N)=S)c1`, `CC1CCN=C2N1c1ccc(Br)cc1C21OCCCO1` (stereo not drawn) is lower in melting point: 193 to 194 °C for the first, 69 to 72 °C for the second.

Compared with `OC1CSC(Sc2ccccc2C(F)(F)F)C(O)C1O` (stereo not drawn), `O=C1CNN(Cc2cccc(C(F)(F)F)c2)C(=O)N1` is higher in melting point: 114 to 115 °C for the first, 152 °C for the second.

First: CCCCCCCCCCCC(=O)CO
Second: CCCCCCCCCCNC(=O)c1cc(C(=O)NCCCCCCCCCC)cc([N+](=O)[O-])c1
The melting point of the first is lower: 52 to 54 °C for the first, 115 to 116 °C for the second.

First: Clc1cc(Br)c2oc3c(Cl)c(Br)c(Cl)c(Br)c3c2c1
Second: O=C1c2c(Cl)cccc2-n2cnc(-c3noc(CCl)n3)c2[C@@H]2CCCN12
The melting point of the first is higher: 220 to 222 °C for the first, 184 to 186 °C for the second.

Compared with `CC(C)c1cc(Oc2ccccc2)cc(C(C)C)c1N`, `COc1ccc(S(=O)c2ccccc2)cc1[N+](=O)[O-]` (stereo not drawn) is higher in melting point: 71 to 72 °C for the first, 135 to 137 °C for the second.

First: COc1ccc(OC)c(C(O)CNC(=O)CN)c1 (stereo not drawn)
Second: COc1ccc(Cl)cc1C(=O)NCCc1ccc(CCC(=O)O)cc1
The melting point of the first is lower: 106 to 107 °C for the first, 118 to 120 °C for the second.

First: CC(=O)Nc1nc2c(ncn2COC(COC(C)=O)COC(C)=O)c(=O)[nH]1
Second: CCOC(=O)C(=O)Nc1nc2ncn(C)c(=S)n2n1
The melting point of the first is lower: 172 °C for the first, 280 to 282 °C for the second.

First: CCCNCc1cnc(-c2ncn3c2CN(C)C(=O)c2cc(F)ccc2-3)o1
Second: CCN1c2ncc(/C=C/c3ccncc3)cc2C(=O)N(C)c2cccnc21
The melting point of the first is lower: 134 to 136 °C for the first, 150 °C for the second.

`CC(=O)N1CCc2c(N)cccc2C1` and `CC(=O)c1ccc(Br)c(S(=O)(=O)Cl)c1` cannot be ordered by melting point: 107 to 108 °C for the first, 107 °C for the second.

Compared with `CCc1c(-c2ccc(O)cc2)c2c(COCCCCCCN3CCCCC3)cc3c(O)ccc1n32`, `O=C(NCCc1cccc2ccc(OC3CCCCC3)cc12)C1CC1` is higher in melting point: 129 to 131 °C for the first, 153 to 155 °C for the second.

First: CCCCCC(O)CCCC(Cc1ccc(C=CC(=O)O)cc1)C(C)=O (stereo not drawn)
Second: CC(C)Oc1ccc(CCCCC2SC(=O)NC2=O)cc1 (stereo not drawn)
The melting point of the first is higher: 87 to 92 °C for the first, 72 to 73 °C for the second.

Compared with `CNC(=O)ON=C(C)CN(c1c(C)cccc1C)S(C)(=O)=O`, `Cc1cccc(C(=O)O)c1N(C)S(=O)(=O)c1ccc(OCCCCNC(=O)c2cc3ccccc3o2)cc1` is higher in melting point: 130 to 134 °C for the first, greater than 200 °C for the second.

First: CC1(C)[C@@]2(C)CC[C@]1(NCC(=O)N1CCC[C@H]1C#N)C(=O)OC2
Second: CC(C)NC(=O)N1C2=NC(C)(C)N(C)C(=O)N2c2ccccc21
The melting point of the first is higher: 174 to 177 °C for the first, 93 to 96 °C for the second.

Compared with `Oc1ccc(I)c(-c2cc(O)ccc2I)c1`, `Nc1ccn2nc(-c3cccc(F)c3)nc2c1` is higher in melting point: 181 to 182 °C for the first, 200 to 203 °C for the second.

First: Nc1cc(-c2noc(-c3cnn4ccc(-c5ccc(C(F)(F)F)cc5)nc34)n2)ccn1
Second: COc1ccc(NC(=O)c2ccc(-c3ccc(-c4noc(C)n4)cc3C)cc2)cc1C=CCN(C)C
The melting point of the first is higher: 250 °C for the first, 220 to 221 °C for the second.

First: CCCn1c(=O)sc2cc(F)c(NC(=O)C=C(CC)NC(=O)OCC)cc21
Second: CCCCCCCNC(=O)Nc1ccc(OC)cc1NC(=O)c1cc(C(C)(C)C)c(O)c(C(C)(C)C)c1
The melting point of the first is higher: 174 to 175 °C for the first, 150 to 151 °C for the second.

Compared with `O=C1Nc2ccc(Br)cc2C2(CCCC2)O1`, `COC(=O)C1COc2ccc(S)cc2C1` (stereo not drawn) is lower in melting point: 180 to 185 °C for the first, 83 to 84 °C for the second.

Compared with `OCC1OC(n2cnc3c2ncn2ccnc32)CC1O` (stereo not drawn), `CCCn1cnc2c1c(=O)n(CCCCOc1ccc(OC)cc1)c(=O)n2C` is lower in melting point: 138 to 141 °C for the first, 61 to 62 °C for the second.

First: CCCCN(Cc1ccc(-c2ccccc2-c2nnn[nH]2)cc1)c1nnn(CC(C)C)c1C(=O)O
Second: O=S(=O)(Cc1n[nH]c(-c2ccccc2)n1)c1ccccc1
The melting point of the first is lower: 105 to 106 °C for the first, 141 to 144 °C for the second.

First: N#Cc1ccc(N(c2ccc(N)cc2)n2ccnc2)cc1
Second: CN1CCN(CC/C=C/c2ccc3c(Nc4ccc(Sc5nccn5C)c(Cl)c4)c(C#N)cnc3c2)CC1
The melting point of the first is lower: 147 °C for the first, 225 to 235 °C for the second.

First: O=[N+]([O-])c1c(Br)nn(Cc2ccccc2)c1Br
Second: Cc1cncc2cccc(S(=O)(=O)Cl)c12
The melting point of the first is higher: 128 °C for the first, 113 to 118 °C for the second.

First: CN(C)C(=N[N+](=O)[O-])N(C)Cc1cnc(Cl)s1
Second: Cc1cc(Oc2ncc(C(F)(F)F)cc2Cl)nn1C(=O)N(C(C)C)C(C)C
The melting point of the first is higher: 101 to 102 °C for the first, 58 to 60 °C for the second.

Work on `C[Si](C)(C)c1ccc2c(c1)C([Si](C)(C)C)([Si](C)(C)C)c1cc([Si](C)(C)C)ccc1-2` yielded a melting point of 141 to 142 °C.
